Consider 12 molecules from US11992009B2, “Pesticide-containing soil disinfestation material without use of fumigant” (priority 2020, dated 2024).

The nature of this series: Lab soil pesticide release testing. The series is classed as physicochemical. The note with it: HPLC, LoQ 0.25 g/ha. Here is the method:
200 g of dry soil is placed in rectangular thin layer chromatography chamber of 27×7×26 cm with lid and 20 g water is added to the soil. A 58 cm^2 of a polymer composite material sample is placed on the humid soil and weight down by a glass plate with a contact pressure of […] to simulate similar contact conditions with the soil as in the field after application of the polymer composite material like a plastic mulch film. […]
After the set contact time with the soil the film sample is removed, moisture is dabbed off, loose dirt is brushed off and then the sample is dried at 60 C in an oven for 10 min. After drying the sample is cut into 100 small squares (each about 7.5 by 7.5 mm), placed in a small glass flask with 5 gram of Methanol and a magnetic stir bar. The flask is capped, stirred for 4 hours and the methanolic solution is then analyzed by HPLC. The difference between the initial and remaining amount of pesticide is released to the soil during the set time. The lowest concentration of analyte that can be determined with an acceptable repeatability and trueness by the method is 0.025 mg/m^2=0.25 g/ha Limit of quantitation (LoQ).

Where [1] appears, read: Example 1 material, 0 days (initial content).
The mark [2] stands for this setting: Example 1 material, 7 days on humid soil.
The mark [3] stands for this setting: Example 1 material, 14 days on humid soil.
Where [4] appears, read: Example 1 material, 21 days on humid soil.
Where [5] appears, read: Example 2 material, 0 days (initial content).
[6] abbreviates: Example 2 material, 7 days on humid soil.
[7] abbreviates: Example 2 material, 14 days on humid soil.
Where [8] appears, read: Example 2 material, 21 days on humid soil.
Setting [9] is: Example 5 material, 0 days (initial content).
Setting [10] is: Example 5 material, 7 days on humid soil.
Where [11] appears, read: Example 5 material, 14 days on humid soil.
The mark [12] stands for this setting: Example 5 material, 21 days on humid soil.
The mark [13] stands for this setting: Example 4 material, 0 days (initial content).
Setting [14] is: Example 4 material, 7 days on humid soil.
The mark [15] stands for this setting: Example 4 material, 14 days on humid soil.
Setting [16] is: Example 4 material, 21 days on humid soil.
The mark [17] stands for this setting: Example 3 material, 0 days (initial content).
Setting [18] is: Example 3 material, 7 days on humid soil.
The mark [19] stands for this setting: Example 3 material, 14 days on humid soil.
Setting [20] is: Example 3 material, 21 days on humid soil.

In the case of `CO/C=C(/C(=O)OC)c1ccccc1Oc1cc(Oc2ccccc2C#N)ncn1` [Azoxystrobin], the “Pesticide content of fumigant-free soil disinfestation materials after set time on Soil” value under setting [1] is given as 96 g/ha; the “Pesticide content of fumigant-free soil disinfestation materials after set time on Soil” value under setting [2] stood at 12 g/ha; the “Pesticide content of fumigant-free soil disinfestation materials after set time on Soil” value under setting [3] turned out to be 0 g/ha; the “Pesticide content of fumigant-free soil disinfestation materials after set time on Soil” value under setting [4] is 0 g/ha; the “Pesticide content of fumigant-free soil disinfestation materials after set time on Soil” value under setting [5] came to 96 g/ha; the “Pesticide content of fumigant-free soil disinfestation materials after set time on Soil” value under setting [6] turned out to be 9 g/ha. Also, the “Pesticide content of fumigant-free soil disinfestation materials after set time on Soil” value by setting is: under setting [7], 0 g/ha; under setting [8], 0 g/ha; under setting [9], 10 g/ha; under setting [10], 0 g/ha; under setting [11], 0 g/ha; under setting [12], 0 g/ha.
On to `O=S(=O)(CCC(F)=C(F)F)c1ncc(Cl)s1` [Fluensulfone], for which the “Pesticide content of fumigant-free soil disinfestation materials after set time on Soil” value came to 2807 g/ha under setting [13], 0 g/ha under setting [14], 0 g/ha under setting [15] and 0 g/ha under setting [16].
For `O=C(NCc1ncc(C(F)(F)F)cc1Cl)c1c(Cl)cccc1Cl` [Fluopicolide], the “Pesticide content of fumigant-free soil disinfestation materials after set time on Soil” value runs as follows: under setting [13], 450 g/ha; under setting [14], 60 g/ha; under setting [15], 30 g/ha; under setting [16], 15 g/ha.
As for `O=C(NCCc1ncc(C(F)(F)F)cc1Cl)c1ccccc1C(F)(F)F` [Fluopyram], the “Pesticide content of fumigant-free soil disinfestation materials after set time on Soil” value under setting [17] is 91 g/ha; the “Pesticide content of fumigant-free soil disinfestation materials after set time on Soil” value under setting [18] came out at 0 g/ha; the “Pesticide content of fumigant-free soil disinfestation materials after set time on Soil” value under setting [19] is given as 0 g/ha; the “Pesticide content of fumigant-free soil disinfestation materials after set time on Soil” value under setting [20] was found to be 0 g/ha; the “Pesticide content of fumigant-free soil disinfestation materials after set time on Soil” value under setting [9] was 350 g/ha; the “Pesticide content of fumigant-free soil disinfestation materials after set time on Soil” value under setting [10] is 14 g/ha. The “Pesticide content of fumigant-free soil disinfestation materials after set time on Soil” value under setting [11] was found to be 0 g/ha and the “Pesticide content of fumigant-free soil disinfestation materials after set time on Soil” value under setting [12] was found to be 0 g/ha.
For `COC(=O)c1c(Cl)nn(C)c1S(=O)(=O)NC(=O)Nc1nc(OC)cc(OC)n1` [Halosulfuron-methyl], the “Pesticide content of fumigant-free soil disinfestation materials after set time on Soil” value runs as follows: under setting [1], 35 g/ha; under setting [2], 0 g/ha; under setting [3], 0 g/ha; under setting [4], 0 g/ha; under setting [5], 35 g/ha; under setting [6], 0 g/ha. The “Pesticide content of fumigant-free soil disinfestation materials after set time on Soil” value is 0 g/ha under setting [7]; 0 g/ha under setting [8]; 35 g/ha under setting [17]; 0 g/ha under setting [18]; 0 g/ha under setting [19]; 0 g/ha under setting [20]. For the same molecule, the “Pesticide content of fumigant-free soil disinfestation materials after set time on Soil” value was determined as 40 g/ha under setting [9], 0 g/ha under setting [10], 0 g/ha under setting [11] and 0 g/ha under setting [12].
On to `COCC(=O)N(c1c(C)cccc1C)[C@H](C)C(=O)OC` [Mefenoxam], for which the “Pesticide content of fumigant-free soil disinfestation materials after set time on Soil” value came out at 281 g/ha under setting [13], 19 g/ha under setting [14], 0 g/ha under setting [15] and 0 g/ha under setting [16].
As for `COCC(=O)N(c1c(C)cccc1C)C(C)C(=O)OC` (centres unmarked) [Metalaxyl], the “Pesticide content of fumigant-free soil disinfestation materials after set time on Soil” value under setting [1] is listed as 936 g/ha; the “Pesticide content of fumigant-free soil disinfestation materials after set time on Soil” value under setting [2] is on record as 12 g/ha; the “Pesticide content of fumigant-free soil disinfestation materials after set time on Soil” value under setting [3] was 1 g/ha; the “Pesticide content of fumigant-free soil disinfestation materials after set time on Soil” value under setting [4] is reported as 0 g/ha; the “Pesticide content of fumigant-free soil disinfestation materials after set time on Soil” value under setting [5] was 936 g/ha; the “Pesticide content of fumigant-free soil disinfestation materials after set time on Soil” value under setting [6] is 15 g/ha. The “Pesticide content of fumigant-free soil disinfestation materials after set time on Soil” value under setting [7] is recorded as 0 g/ha and the “Pesticide content of fumigant-free soil disinfestation materials after set time on Soil” value under setting [8] came out at 0 g/ha.
In the case of `CSc1nnc(C(C)(C)C)c(=O)n1N` [Metribuzin], the “Pesticide content of fumigant-free soil disinfestation materials after set time on Soil” value turned out to be 375 g/ha under setting [13], 0 g/ha under setting [14], 0 g/ha under setting [15] and 0 g/ha under setting [16].
With `CNC(=O)O/N=C(\SC)C(=O)N(C)C` [Oxamyl], the “Pesticide content of fumigant-free soil disinfestation materials after set time on Soil” value under setting [1] stood at 1800 g/ha; the “Pesticide content of fumigant-free soil disinfestation materials after set time on Soil” value under setting [2] is listed as 0 g/ha; the “Pesticide content of fumigant-free soil disinfestation materials after set time on Soil” value under setting [3] was determined as 0 g/ha; the “Pesticide content of fumigant-free soil disinfestation materials after set time on Soil” value under setting [4] came out at 0 g/ha; the “Pesticide content of fumigant-free soil disinfestation materials after set time on Soil” value under setting [5] turned out to be 1800 g/ha; the “Pesticide content of fumigant-free soil disinfestation materials after set time on Soil” value under setting [6] is on record as 0 g/ha. Further, the “Pesticide content of fumigant-free soil disinfestation materials after set time on Soil” value under setting [7] worked out at 0 g/ha and the “Pesticide content of fumigant-free soil disinfestation materials after set time on Soil” value under setting [8] is 0 g/ha.
For the molecule `Cc1nn(-c2cc(NS(C)(=O)=O)c(Cl)cc2Cl)c(=O)n1C(F)F` [Sulfentrazone], the “Pesticide content of fumigant-free soil disinfestation materials after set time on Soil” value under setting [17] amounted to 202 g/ha, the “Pesticide content of fumigant-free soil disinfestation materials after set time on Soil” value under setting [18] is 15 g/ha, the “Pesticide content of fumigant-free soil disinfestation materials after set time on Soil” value under setting [19] turned out to be 0 g/ha and the “Pesticide content of fumigant-free soil disinfestation materials after set time on Soil” value under setting [20] came out at 0 g/ha.
In the case of `CC(C)(C)C(O)(CCc1ccc(Cl)cc1)Cn1cncn1` (centres unmarked) [Tebuconazole], the “Pesticide content of fumigant-free soil disinfestation materials after set time on Soil” value turned out to be 954 g/ha under setting [17], 125 g/ha under setting [18], 45 g/ha under setting [19] and 8 g/ha under setting [20].
With `CON=C(C(=O)OC)c1ccccc1CON=C(C)c1cccc(C(F)(F)F)c1` [Trifloxystrobin], the “Pesticide content of fumigant-free soil disinfestation materials after set time on Soil” value under setting [17] is listed as 238 g/ha, the “Pesticide content of fumigant-free soil disinfestation materials after set time on Soil” value under setting [18] is recorded as 65 g/ha, the “Pesticide content of fumigant-free soil disinfestation materials after set time on Soil” value under setting [19] is on record as 35 g/ha and the “Pesticide content of fumigant-free soil disinfestation materials after set time on Soil” value under setting [20] is given as 3 g/ha.
